Test results: patent US9447106B2, “Substituted pyrazolo[1,5-a]pyrimidines as bruton's tyrosine kinase modulators” (Beigene, Ltd., priority 2013, dated 2016)
Where a name gives a salt, the structure may show the parent alone.

Target: phosphorylated Btk at Tyr223 in Ramos cells (Homo sapiens (Human), UniProt Q06187)
Test: Btk pY223 cellular assay (HTRF) in Ramos cells
Assay type: cell-based
Details: 1 hour compound incubation, pervanadate or Na3VO4 stimulation

phosphorylated Btk at Tyr223 in Ramos cells, sequence (Q06187 whole entry): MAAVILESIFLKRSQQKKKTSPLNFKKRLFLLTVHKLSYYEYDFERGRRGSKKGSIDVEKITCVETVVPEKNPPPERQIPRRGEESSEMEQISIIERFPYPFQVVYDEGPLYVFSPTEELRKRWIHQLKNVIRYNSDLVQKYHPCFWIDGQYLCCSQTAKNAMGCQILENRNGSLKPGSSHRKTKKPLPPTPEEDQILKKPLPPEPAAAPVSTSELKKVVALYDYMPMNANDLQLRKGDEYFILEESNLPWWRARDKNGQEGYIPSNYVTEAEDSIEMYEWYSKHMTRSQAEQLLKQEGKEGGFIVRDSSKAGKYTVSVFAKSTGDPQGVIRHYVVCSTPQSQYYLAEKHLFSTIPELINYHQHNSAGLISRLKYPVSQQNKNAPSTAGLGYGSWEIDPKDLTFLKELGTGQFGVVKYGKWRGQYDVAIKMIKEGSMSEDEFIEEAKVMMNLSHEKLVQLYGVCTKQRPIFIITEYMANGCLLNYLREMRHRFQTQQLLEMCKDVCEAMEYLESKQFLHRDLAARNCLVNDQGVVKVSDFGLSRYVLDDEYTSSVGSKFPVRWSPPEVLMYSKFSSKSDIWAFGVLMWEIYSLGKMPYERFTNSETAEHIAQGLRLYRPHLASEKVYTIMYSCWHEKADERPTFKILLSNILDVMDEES

IC50	Structure (SMILES)
4.1 nM	C=CC(=O)NCC1(C)CCNc2c(C(N)=O)c(-c3ccc(Oc4ccccc4)cc3)nn21 (centres unmarked) [Compound 143, 7-(acrylamidomethyl)-7-methyl-2-(4-phenoxyphenyl)-4,5,6,7-tetrahydropyrazolo[1,5-a]pyrimidine-3-carboxamide]
7 nM	CN(C)C/C=C/C(=O)Nc1ccccc1C1CCNc2c(C(N)=O)c(-c3ccc(Oc4ccccc4)cc3)nn21 (centres unmarked) [Compound 92, (E)-7-(2-(4-(dimethylamino)but-2-enamido)-phenyl)-2-(4-phenoxyphenyl)-4,5,6,7-tetrahydropyrazolo-[1,5-a]pyrimidine-3-carboxamide]
33.7 nM	NC(=O)c1c(-c2ccc(Oc3ccccc3)cc2)nn2c1NCCC2C1CCN(C(=O)/C=C/CN2CCCCC2)CC1 (centres unmarked) [Compound 170, (E)-2-(4-Phenoxyphenyl)-7-(1-(4-(piperidin-1-yl)but-2-enoyl)piperidin-4-yl)-4,5,6,7-tetrahydropyrazolo[1,5-a]pyrimidine-3-carboxamide]
2 nM	C=CC(=O)Nc1ccccc1C1CCNc2c(C(N)=O)c(-c3ccc(F)c(Cl)c3)nn21 (centres unmarked) [Compound 196, 7-(2-Acrylamidophenyl)-2-(3-chloro-4-fluorophenyl)-4,5,6,7-tetrahydropyrazolo-[1,5-a]pyrimidine-3-carboxamide]
17.6 nM	C=CC(=O)N1CC(C2(C)CCNc3c(C(N)=O)c(-c4ccc(Oc5ccccc5)cc4)nn32)C1 (centres unmarked) [Compound 175, 7-(1-Acryloylazetidin-3-yl)-7-methyl-2-(4-phenoxyphenyl)-4,5,6,7-tetrahydropyrazolo-[1,5-a]pyrimidine-3-carboxamide]
11.2 nM	C=CC(=O)N1CC(C2CCNc3c(C(N)=O)c(-c4ccc(Oc5cccc(Cl)c5)cc4)nn32)C1 (centres unmarked) [Compound 107, 7-(1-acryloylazetidin-3-yl)-2-(4-(3-chlorophenoxy)phenyl)-4,5,6,7-tetrahydropyrazolo[1,5-a]pyrimidine-3-carboxamide]
4.6 nM	CC=CC(=O)N1CCc2[nH]c3c(C(N)=O)c(-c4ccc(Oc5ccccc5)cc4)nn3c2C1 [Compound 58, 7-(But-2-enoyl)-2-(4-phenoxyphenyl)-5,6,7,8-tetrahydro-4H-pyrazolo[5′,1′:2,3]imidazo[4,5-c]pyridine-3-carboxamide]
1.8 nM	C=CC(=O)Nc1ccccc1C1CCNc2c(C(N)=O)c(-c3ccc(F)c(Br)c3)nn21 (centres unmarked) [Compound 152, 7-(2-Acrylamidophenyl)-2-(3-bromo-4-fluorophenyl)-4,5,6,7-tetrahydropyrazolo[1,5-a]pyrimidine-3-carboxamide]
30.3 nM	C=CC(=O)N1CC(C2CCNc3c(C(N)=O)c(-c4ccc(Oc5ccc(Cl)cc5)cc4)nn32)C1 (centres unmarked) [Compound 106, 7-(1-acryloylazetidin-3-yl)-2-(4-(4-chlorophenoxy)-phenyl)-4,5,6,7-tetrahydropyrazolo[1,5-a]pyrimidine-3-carboxamide]
7.3 nM	NC(=O)c1c(-c2ccc(Oc3ccccc3)cc2)nn2c1NCC[C@H]2C1CCN(C(=O)C#CCN2CCCC2)CC1 [Compound 187, (S)-2-(4-Phenoxyphenyl)-7-(1-(4-(pyrrolidin-1-yl)but-2-ynoyl)piperidin-4-yl)-4,5,6,7-tetrahydropyrazolo-[1,5-a]pyrimidine-3-carboxamide]
7 nM	C=CC(=O)Nc1ccccc1C1CCNc2c(C(N)=O)c(-c3cc(Cl)c(OC)c(Cl)c3)nn21 (centres unmarked) [Compound 169, 7-(2-Acrylamido-phenyl)-2-(3,5-dichloro-4-methoxyphenyl)-4,5,6,7-tetrahydropyrazolo-[1,5-a]pyrimidine-3-carboxamide]
20 nM	C=CC(=O)Nc1ccccc1C1CCNc2c(C(N)=O)c(-c3ccc(F)c(C)c3)nn21 (centres unmarked) [Compound 157, 7-(2-Acrylamidophenyl)-2-(4-fluoro-3-methylphenyl)-4,5,6,7-tetrahydropyrazolo[1,5-a]pyrimidine-3-carboxamide]
20.6 nM	C=CC(=O)N1CC(C2CCNc3c(C(N)=O)c(-c4ccc(OCc5ccccc5)cc4)nn32)C1 (centres unmarked) [Compound 104, 7-(1-acryloylazetidin-3-yl)-2-(4-(benzyloxy)phenyl)-4,5,6,7-tetrahydropyrazolo-[1,5-a]pyrimidine-3-carboxamide]
6.7 nM	CC#CC(=O)N1CC(C2CCNc3c(C(N)=O)c(-c4ccc(Oc5ccccc5)cc4)nn32)C1 (centres unmarked) [Compound 184, 7-(1-(But-2-ynoyl)azetidin-3-yl)-2-(4-phenoxyphenyl)-4,5,6,7-tetrahydropyrazolo-[1,5-a]pyrimidine-3-carboxamide]
34.4 nM	C=CC(=O)Nc1ccc2c(c1)-n1nc(-c3ccc(Oc4ccccc4)cc3)c(C(N)=O)c1NC2 [Compound 69, 8-Acrylamido-2-(4-phenoxyphenyl)-4,5-dihydropyrazolo[1,5-a]quinazoline-3-carboxamide]
165 nM	NC(=O)c1c(-c2ccc(F)c(Cl)c2)nn2c1NCCC2c1ccccc1NC(=O)/C=C/CN1CCCCC1 (centres unmarked) [Compound 153, (E)-2-(3-Chloro-4-fluorophenyl)-7-(2-(4-(piperidin-1-yl)but-2-enamido)phenyl)-4,5,6,7-tetrahydropyrazolo-[1,5-a]pyrimidine-3-carboxamide]

IC50	Structure (SMILES)
4.6 nM	CN(C)C/C=C/C(=O)N1CCCc2[nH]c3c(C(N)=O)c(-c4ccc(Oc5ccccc5)cc4)nn3c2C1 [Compound 124, (E)-8-(4-(dimethylamino)but-2-enoyl)-2-(4-phenoxyphenyl)-4,5,6,7,8,9-hexahydropyrazolo-[5′,1′:2,3]-imidazo[4,5-c]azepine-3-carboxamide]
8.5 nM	CN(C)CC#CC(=O)N1CCC([C@@H]2CCNc3c(C(N)=O)c(-c4ccc(Oc5ccccc5)cc4)nn32)CC1 [Compound 188, (S)-7-(1-(4-(Dimethylamino)but-2-ynoyl)piperidin-4-yl)-2-(4-phenoxyphenyl)-4,5,6,7-tetrahydropyrazolo-[1,5-a]pyrimidine-3-carboxamide]
10.3 nM	CCC#CC(=O)N1CCC([C@@H]2CCNc3c(C(N)=O)c(-c4ccc(Oc5ccccc5)cc4)nn32)CC1 [Compound 186, (S)-7-(1-(Pent-2-ynoyl)piperidin-4-yl)-2-(4-phenoxyphenyl)-4,5,6,7-tetrahydropyrazolo-[1,5-a]pyrimidine-3-carboxamide]
12.6 nM	CN(C)C/C=C/C(=O)N1CCc2[nH]c3c(C(N)=O)c(-c4ccc(Oc5ccccc5)cc4)nn3c2CC1 [Compound 122, (E)-7-(4-(dimethylamino)but-2-enoyl)-2-(4-phenoxyphenyl)-4,5,6,7,8,9-hexahydropyrazolo-[1′,5′:1,2]-imidazo[4,5-d]azepine-3-carboxamide]
233 nM	CN(C)CCC(=O)N1CCc2[nH]c3c(C(N)=O)c(-c4ccc(Oc5ccccc5)cc4)nn3c2C1 [Compound 57, 7-(3-(Dimethylamino)propanoyl)-2-(4-phenoxyphenyl)-5,6,7,8-tetrahydro-4H-pyrazolo[5′,1′:2,3]imidazo[4,5-c]pyridine-3-carboxamide trifluoroacetate]
1.3 nM	C=CC(=O)Nc1ccccc1C1CCNc2c(C(N)=O)c(-c3ccc(Cl)c(OC)c3)nn21 (centres unmarked) [Compound 160, 7-(2-Acrylamidophenyl)-2-(4-chloro-3-methoxyphenyl)-4,5,6,7-tetrahydropyrazolo[1,5-a]pyrimidine-3-carboxamide]
223 nM	C=CC(=O)Nc1ccc2c(c1)CC(=O)Nc1c(C(N)=O)c(-c3ccc(Oc4ccccc4)cc3)nn1-2 [Compound 75, 8-Acrylamido-5-oxo-2-(4-phenoxyphenyl)-5,6-dihydro-4H-benzo[f]pyrazolo[1,5-a][1,3]diazepine-3-carboxamide]
23.6 nM	C=CC(=O)Nc1ccccc1C1CCNc2c(C(N)=O)c(-c3ccc(Oc4ccc(F)cc4)cc3)nn21 (centres unmarked) [Compound 12, 7-(2-Acrylamidophenyl)-2-(4-(4-fluorophenoxyl)phenyl)-4,5,6,7-tetrahydropyrazolo[1,5-a]pyrimidine-3-carboxamide]
22.6 nM	C=CC(=O)N1CC2(CNc3c(C(N)=O)c(-c4ccc(Oc5ccccc5)cc4)nn32)C1 [Compound 46, 1-Acryloyl-6′-(4-phenoxyphenyl)-1′,2′-dihydrospiro[azetidine-3,3′-imidazo[1,2-b]pyrazole]-7′-carboxamide]
73.2 nM	C=CC(=O)NC1CNc2c(C(N)=O)c(-c3ccc(Oc4ccccc4)cc3)nn2C1 (centres unmarked) [Compound 85, 6-Acrylamido-2-(4-phenoxyphenyl)-4,5,6,7-tetrahydropyrazolo[1,5-a]pyrimidine-3-carboxamide]
1.5 nM	C=CC(=O)Nc1ccccc1C1CCNc2c(C(N)=O)c(-c3ccc(Cl)c(F)c3)nn21 (centres unmarked) [Compound 154, 7-(2-Acrylamidophenyl)-2-(4-chloro-3-fluorophenyl)-4,5,6,7-tetrahydropyrazolo[1,5-a]pyrimidine-3-carboxamide]
3.9 nM	NC(=O)c1c(-c2ccc(Oc3ccccc3)cc2)nn2c1NCC[C@H]2C1CCN(C(=O)CCCl)CC1 [Compound 177, (S)-7-(1-(3-chloropropanoyl)piperidin-4-yl)-2-(4-phenoxy-phenyl)-4,5,6,7-tetrahydropyrazolo-[1,5-a]pyrimidine-3-carboxamide]
6.8 nM	C=CC(=O)Nc1ccccc1C1CCNc2c(C(N)=O)c(-c3ccc(Cl)c(Cl)c3)nn21 (centres unmarked) [Compound 156, 7-(2-Acrylamidophenyl)-2-(3,4-dichlorophenyl)-4,5,6,7-tetrahydropyrazolo-[1,5-a]pyrimidine-3-carboxamide]
4.8 nM	CN(C)C/C=C/C(=O)N1CCc2c([nH]c3c(C(N)=O)c(-c4ccc(Oc5ccccc5)cc4)nn23)C1 [Compound 64, (E)-6-(4-(Dimethylamino)but-2-enoyl)-2-(4-phenoxyphenyl)-5,6,7,8-tetrahydro-4H-pyrazolo[1′,5′:1,2]imidazo[4,5-c]pyridine-3-carboxamide trifluoroacetate]
3.2 nM	C=CC(=O)Nc1ccccc1C1CCNc2c(C(N)=O)c(-c3ccc(C(F)(F)F)c(Cl)c3)nn21 (centres unmarked) [Compound 162, 7-(2-Acrylamidophenyl)-2-(3-chloro-4-(trifluoromethyl)phenyl)-4,5,6,7-tetrahydropyrazolo[1,5-a]pyrimidine-3-carboxamide]

Structure (SMILES)	IC50
C=CC(=O)NCC1CNc2c(C(N)=O)c(-c3ccc(Oc4ccccc4)cc3)nn2C1 (centres unmarked) [Compound 86, 6-(Acrylamidomethyl)-2-(4-phenoxyphenyl)-4,5,6,7-tetrahydro pyrazolo[1,5-a]pyrimidine-3-carboxamide]	4.4 nM
